The subject of assay [1] is MOLM-14 D835Y (endogenous FLT3 ITD and transfected FLT3 D835Y). Put plainly: MOLM-14 D835Y cell proliferation assay (CellTiter-Glo). The format is cell-based. The following applies: Homo sapiens, MOLM-14, 72 h; 3 d growth, GMean. The gist of the method: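 MOLM-14 derivatives carrying D835Y or F691L, selected under escalating AC220, were seeded at 1×10^4 cells/well and exposed to an 8-point 1:3 compound series (1 to 0.00046 μM, 0.2% DMSO final) for three days at 37° C., 5% CO2. CellTiter-Glo luminescence (ATP content) versus concentration gave IC50.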
(In general: In ATP-based viability assays light output follows the ATP content of the culture.)

For the next assay, the target named is T1, FLT3-ITD (Homo sapiens, UniProt P36888).
T1 sequence (P36888 1-993): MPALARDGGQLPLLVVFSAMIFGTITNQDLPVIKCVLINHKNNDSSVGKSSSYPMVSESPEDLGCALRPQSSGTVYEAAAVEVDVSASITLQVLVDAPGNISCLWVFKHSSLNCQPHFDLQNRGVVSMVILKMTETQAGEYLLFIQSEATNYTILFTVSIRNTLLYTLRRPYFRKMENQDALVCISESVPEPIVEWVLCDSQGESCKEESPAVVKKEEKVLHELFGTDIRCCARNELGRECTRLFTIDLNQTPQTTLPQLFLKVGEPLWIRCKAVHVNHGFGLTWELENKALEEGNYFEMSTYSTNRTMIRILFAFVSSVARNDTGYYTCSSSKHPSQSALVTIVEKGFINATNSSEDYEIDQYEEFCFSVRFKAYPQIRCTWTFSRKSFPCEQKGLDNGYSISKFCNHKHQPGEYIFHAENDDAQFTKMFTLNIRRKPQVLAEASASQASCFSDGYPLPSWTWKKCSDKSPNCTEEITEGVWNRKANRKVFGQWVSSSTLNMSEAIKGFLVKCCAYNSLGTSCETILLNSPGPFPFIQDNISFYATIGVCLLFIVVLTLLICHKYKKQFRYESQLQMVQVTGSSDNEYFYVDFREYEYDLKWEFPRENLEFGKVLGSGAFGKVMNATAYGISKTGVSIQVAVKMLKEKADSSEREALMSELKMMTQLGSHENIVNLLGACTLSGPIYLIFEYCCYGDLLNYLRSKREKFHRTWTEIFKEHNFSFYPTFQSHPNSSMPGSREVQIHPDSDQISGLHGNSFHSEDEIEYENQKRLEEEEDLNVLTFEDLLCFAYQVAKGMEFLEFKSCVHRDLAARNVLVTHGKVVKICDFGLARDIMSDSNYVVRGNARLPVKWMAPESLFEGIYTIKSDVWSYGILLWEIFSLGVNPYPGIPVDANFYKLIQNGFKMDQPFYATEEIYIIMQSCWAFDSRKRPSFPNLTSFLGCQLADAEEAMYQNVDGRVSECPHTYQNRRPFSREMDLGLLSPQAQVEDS
Put plainly: FLT3-ITD recombinant enzyme kinase assay (AlphaScreen). The format is biochemical. Particulars: 8 pt; read-out: FLT3_ITD 8 pt: IC50. The method in brief:
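Recombinant kinase phosphorylates 30 nM biotinylated poly(Glu4-Tyr) peptide; ATP is 10 μM for FLT3-ITD and FLT3-D835Y, 100 μM for c-KIT. Phosphotyrosine detected by AlphaScreen (streptavidin donor, PY20 acceptor beads, 10 μg/mL), 580 nm signal after 680 nm excitation; IC50 from signal decrease.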
For orientation: Alpha assays give light when donor and acceptor beads are brought close together.

As for `Cc1ncc(NC(=O)Cc2ccc(-c3cnc4[nH]nc(C)c4c3)c(F)c2)cc1C(F)(F)F` [Compound P-0172, 2-[3-fluoro-4-(3-methyl-1H-pyrazolo[3,4-b]pyridin-5-yl)phenyl]-N-[6-methyl-5-(trifluoromethyl)-3-pyridyl]acetamide], the IC50 (in assay [1]; at FLT3-ITD) was 0.0001 to 10 µM throughout.
Regarding `Cc1n[nH]c2ncc(-c3cc(F)c(CC(=O)Nc4cncc(C(F)(F)F)c4)cc3F)cc12` [Compound P-0173, 2-[2,5-difluoro-4-(3-methyl-1H-pyrazolo[3,4-b]pyridin-5-yl)phenyl]-N-[5-(trifluoromethyl)-3-pyridyl]acetamide], the IC50 (in assay [1]; on FLT3-ITD) was 0.0001 to 10 µM in each case.
With `COc1ncc(NC(=O)Cc2ccc(-c3cnc4[nH]nc(C)c4c3)c(F)c2)cc1C(F)(F)F` [Compound P-0174, 2-[3-fluoro-4-(3-methyl-1H-pyrazolo[3,4-b]pyridin-5-yl)phenyl]-N-[6-methoxy-5-(trifluoromethyl)-3-pyridyl]acetamide], the IC50 (in assay [1]; at FLT3-ITD) was 0.0001 to 10 µM each time.
With `Cc1ncc(NC(=O)Cc2cc(F)c(-c3cnc4[nH]nc(C)c4c3)cc2F)cc1C(F)(F)F` [Compound P-0175, 2-(2,5-difluoro-4-(3-methyl-1H-pyrazolo[3,4-b]pyridin-5-yl)phenyl)-N-(6-methyl-5-(trifluoromethyl)pyridin-3-yl)acetamide], the IC50 (in assay [1]; at FLT3-ITD) was 0.0001 to 10 µM each time.
In the case of `COc1ncc(NC(=O)Cc2cc(F)c(-c3cnc4[nH]nc(C)c4c3)cc2F)cc1C(F)(F)F` [Compound P-0176, 2-[2,5-difluoro-4-(3-methyl-1H-pyrazolo[3,4-b]pyridin-5-yl)phenyl]-N-[6-methoxy-5-(trifluoromethyl)-3-pyridyl]acetamide], the IC50 (in assay [1]; at FLT3-ITD) was 0.0001 to 10 µM in each case.
As for `Cc1n[nH]c2ncc(-c3ccc(CC(=O)Nc4cncc(C(F)(F)F)c4)cc3F)cc12` [Compound P-0177, 2-[3-fluoro-4-(3-methyl-1H-pyrazolo[3,4-b]pyridin-5-yl)phenyl]-N-[5-(trifluoromethyl)-3-pyridyl]acetamide], the IC50 (in assay [1]; at FLT3-ITD) was 0.0001 to 10 µM throughout.
On to `COCCn1cc(Nc2ncc(-c3ccc(CC(=O)Nc4cncc(C(F)(F)F)c4)cc3)cn2)cn1` [Compound P-0178, 2-[4-[2-[[1-(2-methoxyethyl)pyrazol-4-yl]amino]pyrimidin-5-yl]phenyl]-N-[5-(trifluoromethyl)-3-pyridyl]acetamide], for which the IC50 (in assay [1]; on FLT3-ITD) was 0.0001 to 10 µM throughout.
As to `COCCn1cc(Nc2ncc(-c3ccc(CC(=O)Nc4cnc(C)c(C(F)(F)F)c4)cc3)cn2)cn1` [Compound P-0179, 2-[4-[2-[[1-(2-methoxyethyl)pyrazol-4-yl]amino]pyrimidin-5-yl]phenyl]-N-[6-methyl-5-(trifluoromethyl)-3-pyridyl]acetamide], the IC50 (in assay [1]; at FLT3-ITD) was 0.0001 to 10 µM in each case.
For `COc1nn(C[C@H](C)O)cc1Nc1ncc(-c2ccc(CC(=O)Nc3cnc(C)c(C(F)(F)F)c3)cc2)cn1` [Compound P-0180, 2-[4-[2-[[1-[(2S)-2-hydroxypropyl]-3-methoxy-pyrazol-4-yl]amino]pyrimidin-5-yl]phenyl]-N-[6-methyl-5-(trifluoromethyl)-3-pyridyl]acetamide], the IC50 (in assay [1]; at FLT3-ITD) was 0.0001 to 10 µM throughout.
On to `O=C(Cc1ccc(-c2cnc3[nH]c(-c4ccnc(N5CCOCC5)c4)cc3c2)cn1)Nc1ccnc(C(F)(F)F)c1` [Compound P-0181, 2-[5-[2-(2-morpholino-4-pyridyl)-1H-pyrrolo[2,3-b]pyridin-5-yl]-2-pyridyl]-N-[2-(trifluoromethyl)-4-pyridyl]acetamide], for which the IC50 (in assay [1]; at FLT3-ITD) was 0.0001 to 10 µM each time.
Take `N#Cc1cc(-c2cc3cc(-c4ccc(CC(=O)Nc5ccnc(C(F)(F)F)c5)nc4)cnc3[nH]2)ccn1` [Compound P-0182, 2-[5-[2-(2-cyano-4-pyridyl)-1H-pyrrolo[2,3-b]pyridin-5-yl]-2-pyridyl]-N-[2-(trifluoromethyl)-4-pyridyl]acetamide]: the IC50 (in assay [1]; at FLT3-ITD) was 0.0001 to 10 µM throughout.
In the case of `O=C(Cc1ccc(-c2cnc3[nH]c(-c4ccc(N5CCOCC5)nc4)cc3c2)cn1)Nc1ccnc(C(F)(F)F)c1` [Compound P-0183, 2-[5-[2-(6-morpholino-3-pyridyl)-1H-pyrrolo[2,3-b]pyridin-5-yl]-2-pyridyl]-N-[2-(trifluoromethyl)-4-pyridyl]acetamide], the IC50 (in assay [1]; at FLT3-ITD) was 0.0001 to 10 µM throughout.
Take `COc1ccc(-c2cc3cc(-c4ccc(CC(=O)Nc5cc(C(F)(F)F)ccn5)cc4F)cnc3[nH]2)cn1` [Compound P-0191, 2-[3-fluoro-4-[2-(6-methoxy-3-pyridyl)-1H-pyrrolo[2,3-b]pyridin-5-yl]phenyl]-N-[4-(trifluoromethyl)-2-pyridyl]acetamide]: the IC50 (in assay [1]; on FLT3-ITD) was 0.0001 to 10 µM in each case.
With `O=C(Cc1ccc(-c2cnc3[nH]c(-c4ccc(N5CCOCC5)nc4)cc3c2)c(F)c1)Nc1cc(C(F)(F)F)ccn1` [Compound P-0192, 2-[3-fluoro-4-[2-(6-morpholino-3-pyridyl)-1H-pyrrolo[2,3-b]pyridin-5-yl]phenyl]-N-[4-(trifluoromethyl)-2-pyridyl]acetamide], the IC50 (in assay [1]; on FLT3-ITD) was 0.0001 to 10 µM each time.
For `N#Cc1cc(-c2cc3cc(-c4ccc(CC(=O)Nc5cc(C(F)(F)F)ccn5)cc4F)cnc3[nH]2)ccn1` [Compound P-0194, 2-[4-[2-(2-cyano-4-pyridyl)-1H-pyrrolo[2,3-b]pyridin-5-yl]-3-fluoro-phenyl]-N-[4-(trifluoromethyl)-2-pyridyl]acetamide], the IC50 (in assay [1]; on FLT3-ITD) was 0.0001 to 10 µM throughout.
Take `N#Cc1ccc(-c2cc3cc(-c4ccc(CC(=O)Nc5cncc(C(F)(F)F)c5)cc4F)cnc3[nH]2)cn1` [Compound P-0195, 2-[4-[2-(6-cyano-3-pyridyl)-1H-pyrrolo[2,3-b]pyridin-5-yl]-3-fluoro-phenyl]-N-[5-(trifluoromethyl)-3-pyridyl]acetamide]: the IC50 (in assay [1]; at FLT3-ITD) was 0.0001 to 10 µM each time.
Take `COc1ccc(-c2cc3cc(-c4ccc(CC(=O)Nc5cncc(C(F)(F)F)c5)cc4F)cnc3[nH]2)cn1` [Compound P-0196, 2-[3-fluoro-4-[2-(6-methoxy-3-pyridyl)-1H-pyrrolo[2,3-b]pyridin-5-yl]phenyl]-N-[5-(trifluoromethyl)-3-pyridyl]acetamide]: the IC50 (in assay [1]; on FLT3-ITD) was 0.0001 to 10 µM each time.
With `O=C(Cc1ccc(-c2cnc3[nH]c(-c4cnn(C(F)F)c4)cc3c2)c(F)c1)Nc1cncc(C(F)(F)F)c1` [Compound P-0197, 2-[4-[2-[1-(difluoromethyl)pyrazol-4-yl]-1H-pyrrolo[2,3-b]pyridin-5-yl]-3-fluoro-phenyl]-N-[5-(trifluoromethyl)-3-pyridyl]acetamide], the IC50 (in assay [1]; at FLT3-ITD) was 0.0001 to 10 µM in each case.
For `O=C(Cc1ccc(-c2cnc3[nH]c(-c4ccc(N5CCOCC5)nc4)cc3c2)c(F)c1)Nc1cncc(C(F)(F)F)c1` [Compound P-0198, 2-[3-fluoro-4-[2-(6-morpholino-3-pyridyl)-1H-pyrrolo[2,3-b]pyridin-5-yl]phenyl]-N-[5-(trifluoromethyl)-3-pyridyl]acetamide], the half-maximal inhibitory concentration (IC50) (in assay [1]; at FLT3-ITD) was 0.0001 to 10 µM each time.
In the case of `N#Cc1cc(-c2cc3cc(-c4ccc(CC(=O)Nc5cncc(C(F)(F)F)c5)cc4F)cnc3[nH]2)ccn1` [Compound P-0199, 2-[4-[2-(2-cyano-4-pyridyl)-1H-pyrrolo[2,3-b]pyridin-5-yl]-3-fluoro-phenyl]-N-[5-(trifluoromethyl)-3-pyridyl]acetamide], the IC50 (in assay [1]; on FLT3-ITD) was 0.0001 to 10 µM each time.

(Values after US10160747B2, “Compounds and methods for kinase modulation, and indications therefor” (Plexxikon Inc., priority 2016, dated 2018).)
